TGI data for 5 molecules are collected here from PubChem BioAssay (NCI).

Molecules are shown by their SMILES.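 Method: 48-hour compound exposure of cells in 96-well plates, five concentrations, linear interpolation of endpoints. At the TGI there is no net growth.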 Bounds are passed on as bounds.

Test systems include DLD-1 colon; CCRF-CEM leukemia; KM20L2 colon; 786-0 renal; COLO 205 colon; EKVX NSCLC; BT-549 breast; SF-539 CNS; SK-OV-3 ovarian; HS 578T breast; M19-MEL melanoma; DMS 273 small cell lung.
What all share (assay): growth of human tumour cells (NCI), 48 h

`CC1(C)C(=O)/C=C\C(=O)C(C)(C)C2=CC=C(O2)C(C)(C)C(=O)C(Br)C(Br)C(=O)C(C)(C)C2=CC=C1O2` (centres undefined): the TGI was 87.2 µM in the assay with DLD-1 colon; 11.2 µM with CCRF-CEM leukemia; more than 100 µM in the assay with KM20L2 colon; more than 100 µM in the assay on 786-0 renal; more than 100 µM with COLO 205 colon; more than 100 µM with EKVX NSCLC. The TGI is 76.5 µM in the assay with BT-549 breast; more than 100 µM with SF-539 CNS; more than 100 µM with SK-OV-3 ovarian; more than 100 µM with HS 578T breast; more than 100 µM with M19-MEL melanoma; more than 100 µM in the assay on DMS 273 small cell lung.
Consider `COc1cccc(/C=C2\CCC(CN(C)C)C2=O)c1` (centres undefined), for which the TGI is 7.81 µM with DLD-1 colon; 11.1 µM in the assay on CCRF-CEM leukemia; 31.7 µM with KM20L2 colon; 8.57 µM with 786-0 renal; 24.5 µM in the assay on COLO 205 colon; 42.1 µM in the assay with EKVX NSCLC. In addition, the TGI in the assay with BT-549 breast is 15.2 µM; in the assay with SF-539 CNS, 27.9 µM; in the assay on SK-OV-3 ovarian, 29.2 µM; in the assay on HS 578T breast, more than 89.4 µM; with M19-MEL melanoma it was 21.5 µM; in the assay with DMS 273 small cell lung, 26.2 µM.
In the case of `C=CC12CCCCC1CC(C(=O)OC)=C(O)C2` (centres undefined), the TGI in the assay with DLD-1 colon, in the assay with CCRF-CEM leukemia, in the assay on KM20L2 colon, in the assay with 786-0 renal, in the assay with COLO 205 colon and in the assay with EKVX NSCLC was more than 100 µM each time. Besides, the TGI in the assay on SF-539 CNS, in the assay on SK-OV-3 ovarian, in the assay on M19-MEL melanoma and in the assay on DMS 273 small cell lung was more than 100 µM each time.
For the molecule `NC1=NN(c2ccccc2)C(=O)C1C(=O)C(=O)Nc1ccccc1` (centres undefined), the TGI in the assay on DLD-1 colon, in the assay with CCRF-CEM leukemia, in the assay with KM20L2 colon, in the assay with 786-0 renal, in the assay with COLO 205 colon and in the assay on EKVX NSCLC was more than 100 µM throughout. The TGI in the assay on SF-539 CNS, with SK-OV-3 ovarian, with M19-MEL melanoma and with DMS 273 small cell lung was more than 100 µM throughout.
Turning to `CC(C)C1=Cc2ccc3c(c2C(=O)C1=O)CCCC3`, the TGI amounted to 3.31 µM in the assay with DLD-1 colon; 42.7 µM in the assay with KM20L2 colon; 6.02 µM in the assay on 786-0 renal; 27.1 µM with COLO 205 colon; 19.2 µM with EKVX NSCLC; 16.9 µM in the assay on SF-539 CNS. For the same molecule, the TGI in the assay with SK-OV-3 ovarian came to 30.5 µM; in the assay on HS 578T breast, 55.9 µM; in the assay on M19-MEL melanoma, 8.59 µM; in the assay with DMS 273 small cell lung, 13.6 µM.
